Assay results from patent US7067500B2, “Betaines as adjuvants to susceptibility testing and antimicrobial therapy” (priority 1997, dated 2006).
Entries after “also recorded” stand apart in the source; their conditions may differ. Where a name gives a salt, the structure may show the parent alone.

System: M. tuberculosis isolates (Table 8)
Assay: MTB isolates vs. antibiotic screen in the presence and absence of CB-18
Settings: CB-18 17 μg/ml

In the case of `CCCCCCCCCCCCCCCCCC[N+](C)(C)CCCC(=O)[O-]` [CB-18, N-(3-carboxypropyl)-N,N-dimethyl-1-octadecanaminium, inner salt], the “CB-18 induced sensitivity to antibiotics tested” value (061-TBR (INH resistant)) is reported as “exacerbated in the presence of CB-18; also recorded: Minor, if any, CB-18 induced sensitivity to” and the “CB-18 induced sensitivity to antibiotics tested” value (896-BAL (multi drug resistant: INH, RIF & PZA)) is reported as “Minimal, if any, CB-18 induced sensitivity to”.
